{"source": "patent US11617741B1", "about": "“Method for inhibiting growth of bacteria” (priority 2021, dated 2023)", "key": {"[1]": {"system": "PKZRSA1 (PKZ18-22-resistant MRSA)", "assay": "MICs against PKZ18-22-resistant mutant compared to WT MRSA", "assay_type": "cell-based, Staphylococcus aureus", "procedure": "(§1) The 96-well plate was organized as follows. Media (100 μl) were added to all wells."}, "[2]": {"system": "planktonic growth of Staphylococcus", "experimental": "An overnight culture of S. aureus (ATCC 29213) was diluted to 1×10^7 cells/mL in tryptic soy broth (TSB) supplemented with 10% human plasma (Innovative Research, Novi, Mich. USA) and added to the wells of an MBEC™-HTP Assay Biofilm Innoculator (Innovotech, Edmonton, AB, Canada). The plate was incubated overnight at 37° C. and shaken at 125 rpm. […] Control wells were without a COMPOUND OF Formula I. The treatment plate was incubated for 24 h at 37° C. after which the lid was removed, rinsed with PBS, and placed in a new 96-well plate containing TSB. The biofilm was removed from the assay lid into the recovery plate wells by sonication, a new plate cover was added, and the viability of the biofilm was determined after 24 h of incubation at 37° C. by reading the OD at 625 nm. Three independent experiments were conducted. Concentrations of interest were followed up with colony forming unit (CFU) recovery and scanning electron microscopy analysis. After conclusion of the MBEC assay, the minimum bactericidal concentration (MBC) was determined. The MBC is the lowest concentration of an antibacterial agent required to kill a particular bacterium. The peg lid from the MBEC assay was removed from the challenge plate and 20 μL of medium from each well of the challenge plate was removed and added to a new sterile 96-well plate filled with 180 μL TSB. […]"}, "[3]": {"system": "S. aureus (ATCC 29213) biofilm", "assay": "MBEC-HTP biofilm model, single agents, CFU recovery", "details": "range of concentrations up to 1.024 mg/mL", "experimental": "An overnight culture of S. aureus (ATCC 29213) was diluted to 1×10^7 cells/mL in tryptic soy broth (TSB) supplemented with 10% human plasma (Innovative Research, Novi, Mich. USA) and added to the wells of an MBEC™-HTP Assay Biofilm Innoculator (Innovotech, Edmonton, AB, Canada). The plate was incubated overnight at 37° C. and shaken at 125 rpm. […] Control wells were without a COMPOUND OF Formula I. The treatment plate was incubated for 24 h at 37° C. after which the lid was removed, rinsed with PBS, and placed in a new 96-well plate containing TSB. The biofilm was removed from the assay lid into the recovery plate wells by sonication, a new plate cover was added, and the viability of the biofilm was determined after 24 h of incubation at 37° C. by reading the OD at 625 nm. Three independent experiments were conducted. Concentrations of interest were followed up with colony forming unit (CFU) recovery and scanning electron microscopy analysis. After conclusion of the MBEC assay, the minimum bactericidal concentration (MBC) was determined. […]\nAfter rinsing in PBS, designated pegs were snapped off the lid using sterile tweezers and placed in 1.5 mL Eppendorf tubes containing 200 μL PBS. […] The plates were then imaged and colonies counted on a ColonyDoc-It™ Imaging station (UVP, Analytik Jena, Beverly, Mass., USA)."}, "glyQS T-box": {"system": "glyQS T-box", "assay": "qRT-PCR transcriptional read-through of T-box-regulated glyQS (confirmation of inhibition of T-box mechanism)", "assay_type": "cell-based, Bacillus subtilis 1A5", "details": "confirmation of inhibition of T-box mechanism from qRT-PCR assay", "source_text": "Sample preparation of RNA and cDNA."}, "[4]": {"system": "S. aureus N315 (MRSA isolate)", "assay": "Minimum inhibitory and bactericidal concentration determination", "assay_type": "cell-based, Staphylococcus aureus", "procedure": "as §1"}, "E. coli": {"system": "E. coli", "assay": "Minimum inhibitory and bactericidal concentration determination, Gram-negative control", "assay_type": "cell-based, Escherichia coli", "procedure": "as §1"}, "B. subtilis 168 [5]": {"system": "B. subtilis 168", "assay": "Minimum inhibitory concentration determination", "assay_type": "cell-based, Bacillus subtilis", "procedure": "as §1"}, "S. aureus 4220": {"system": "S. aureus 4220", "procedure": "MICs were determined essentially as previously described (Frohlich KM, Weintraub SF, Bell JT, Todd GC, Väre VYP, Schneider R, Kloos ZA, Tabe ES, Cantara WA, Stark CJ, Onwuanaibe UJ, Duffy BC, Basanta-Sanchez M, Kitchen DB, McDonough KA, Agris PF. 2019. Discovery of small-molecule antibiotics against a unique tRNA-mediated regulation of transcription in Gram-positive bacteria. ChemMedChem 14:758-769.). In short, cultures were grown overnight in the appropriate media, diluted to A620 of 0.1, grown for 3 hours, and again diluted to A620 of 0.1. Cultures were then diluted 10-fold, of which 5 μl were added to each well of the 96-well plate used for the experiment except the media control wells. The initial well inoculum was 7.5×10^5 bacteria for S. aureus and 2.5×10^5 bacteria for B. subtilis (bacterial numbers were measured by OD). The 96-well plate was organized as follows. Media (100 μl) were added to all wells. Stock solutions (100 μi) containing 2 times the highest concentration of antibiotics to be tested were loaded to column 1, with two technical repeats per drug. […] The following controls were included: vehicle control (DMSO, chloroform, ethanol, etc.), cells in plain media, and media control (no cells). The initial optical density (A620) of the 96-well plate was determined, the plate was grown for 16 to 24 hours, and at that time, the final optical densities (A620) were read. The initial reading was subtracted from the final reading, and the technical replicates were averaged. MICs of PKZ18 and analogs were compared to clinically used antibiotics such as gentamicin."}, "[6]": {"system": "B. subtilis glyQS Stem I specifier loop", "assay": "UV-monitored thermodynamic stability measurements of stem I constructs", "assay_type": "binding, Bacillus subtilis", "procedure": "Thermodynamic parameters were derived from four UV-monitored destabilizations and four renaturations of chemically synthesized wild-type and mutant truncated B. subtilis glyQS Stem I specifier loops in the absence and presence of PKZ18 (10 mM Na2HPO4 and 10 mM KH2PO4; final pH 6.8). The absorbance was collected at 260 nm and was performed using a Varian Cary 3 UV-visible spectrophotometer equipped with a Peltier temperature control accessory. The temperature was increased at a rate of 1° C. per minute from 5 to 85° C. Absorbance data at 260 nm were collected as a function of temperature at a rate of four data points per minute. All experiments were performed simultaneously with a control cell containing buffer only. The error calculated is the error of the mean."}, "[7]": {"biological_target": "Bacillus subtilis glyQS T-box", "assay": "Binding to chemically synthesized truncated stem I construct", "details": "truncated stem I construct of glyQS T-box"}, "[8]": {"biological_target": "Bacillus subtilis tyrS T-box", "assay": "Binding to chemically synthesized truncated stem I construct", "details": "truncated stem I construct of tyrS T-box"}, "[9]": {"system": "A549 human lung epithelial cells", "assay": "alamarBlue cell redox activity", "assay_type": "cell-based", "details": "128 μg/ml, 48 hours", "procedure": "(§2) alamarBlue was purchased (Thermo Scientific) and used according to the manufacturer's directions. In short, 50,000 cells of either A549 or J774.16 were added into a 96-well plate in 200 μl and left to adhere overnight. As a control, we used a 96-well plate with the desired drugs at 2× the final concentrations in 160 μl without adding cells. The cells' medium was removed, and 100 μl fresh medium was added, followed by 100 μl of 2× drug from the corresponding wells in the drug plate. Media were added to the drug plate to reduce the concentrations to 1×, and the cells were incubated at 37° C. for 48 or 72 hours. alamarBlue was added at 10 μl per 100 μl, and the fluorescence of both plates at 590 nm was read after overnight incubation. The drug plate fluorescence was subtracted from the cells' plate respective values, and the data were normalized to untreated cells' reading. All plates included a vehicle control used as the 0-μg/ml value for each drug tested. All concentrations were tested in triplicate and included at least three biological replicates. A media control, untreated control, a killing control, and a vehicle control were always included. The cytotoxicity of synergistic or additive MICs of PKZ18 analogs and a common antibiotic (co-MIC) on eukaryotic cells was tested on A549 cells as above, but the two plates were set up identically to the checkerboard assay so that the final concentrations tested corresponded to those tested against MRSA."}, "[10]": {"system": "J774.16 murine macrophages", "assay": "alamarBlue cell redox activity", "assay_type": "cell-based", "details": "for cellular redox activity: 64 μg/ml", "procedure": "as §2"}, "[11]": {"system": "J774.16 murine macrophages", "assay": "Trypan blue cell viability counting", "assay_type": "cell-based", "details": "48 hours", "procedure": "J774.16 cells were grown in J7 medium from a fresh passage in a 1:4 dilution of 70 to 80% confluent cells. The cells were allowed to adhere in 6-well plates overnight. The medium was replaced, and drugs were added to desired concentrations in a total volume of 5 ml/well. A media control, untreated control, a killing control of Triton X-100, and a vehicle control were always included. After 48 hours treatment, medium was removed, and fresh media and Trypan blue were added 1:1 in a final volume of 400 μl. Cells, 100 to 200, from two areas of each well were counted and the data averaged and normalized against untreated cells. The vehicle control served as the 0.0-μg/ml value. At least three biological replicates were included for each drug at each concentration."}, "S. aureus N315 (MRSA)": {"system": "S. aureus N315 (MRSA)", "assay": "Antibiotic resistance frequency (fluctuation assay)", "assay_type": "cell-based, Staphylococcus aureus", "details": "MRSA", "source_text": "Gentamicin on BHI agar was used as a control."}, "B. subtilis 168 [12]": {"system": "B. subtilis 168", "procedure": "Gentamicin on BHI agar was used as a control. In short, MRSA and B. subtilis were grown overnight in BHI, and 3-hour day cultures at the optical density of A620 of 0.1 were started for both organisms. The optical density after 3 hours of growth was measured; cultures were then pelleted and resuspended to give 10^11 CFU/ml by optical density. CFU of 10^11 per OD were plated in total; 100 μl of the cells were then plated on BHI agar containing either 128 μg/m1PKZ18 or 64 μg/m1PKZ18-22. Serial dilutions of the cells were plated on plain BHI agar in order to calculate the CFU/ml, which was calculated as the number of colonies found on the plates divided by the total number of bacteria plated. CFU means colony forming units, a measure of live bacteria."}, "[13]": {"details": "similarly sized construct with gly codon but lacking the specifier loop"}, "[14]": {"details": "wild-type truncated glyQS stem I with the specifier loop"}}, "note": "Marks after values point to notes of the source that are not given here.", "data": [{"smiles": "CN[C@H](CC(C)C)C(=O)N[C@H]1C(=O)N[C@@H](CC(N)=O)C(=O)N[C@H]2C(=O)N[C@H]3C(=O)N[C@H](C(=O)N[C@H](C(=O)O)c4cc(O)cc(O)c4-c4cc3ccc4O)[C@H](O)c3ccc(c(Cl)c3)Oc3cc2cc(c3O[C@@H]2O[C@H](CO)[C@@H](O)[C@H](O)[C@H]2O[C@H]2C[C@](C)(N)[C@H](O)[C@H](C)O2)Oc2ccc(cc2Cl)[C@H]1O", "note": "[vancomycin]", "values": [{"measurement": "fold increase in MIC against PKZRSA1 compared to WT", "setting": "[1]", "result": 2, "unit": "fold"}, {"measurement": "planktonic growth over a range of concentrations", "setting": "[2]", "result": "no growth"}, {"measurement": "MBEC efficacy at highest concentration", "setting": "[3]", "result": "not effective"}]}, {"smiles": "Cc1sc(NC(=O)C2C3CCC(C3)C2C(=O)O)nc1-c1ccc(C(C)C)cc1", "note": "(centres unmarked) [PKZ18-00]", "values": [{"measurement": "T-Box targeting", "setting": "glyQS T-box; Table 1", "result": "Yes"}, {"measurement": "T-Box targeting", "setting": "glyQS T-box; Table 2", "result": "Yes"}, {"measurement": "MIC S. aureus N315", "setting": "[4]; Table 2", "result": 64, "unit": "µg/mL"}, {"measurement": "MBC S. aureus N315", "setting": "[4]; Table 2, value in parentheses", "result": "> 256", "unit": "µg/mL"}, {"measurement": "MIC E. coli", "setting": "E. coli", "result": "> 256", "unit": "µg/mL"}, {"measurement": "MBC E. coli", "setting": "E. coli; value in parentheses", "result": "> 256", "unit": "µg/mL"}, {"measurement": "fold lower MIC in minimal versus rich media", "setting": "B. subtilis 168 [5]; B. subtilis 168", "result": 8, "unit": "fold"}, {"measurement": "MIC against B. subtilis 168 in minimal media", "setting": "B. subtilis 168 [5]; minimal media", "result": 8, "unit": "µg/mL"}, {"measurement": "MIC against B. subtilis 168 in rich media", "setting": "B. subtilis 168 [5]; rich media", "result": 64, "unit": "µg/mL"}, {"measurement": "fold lower MIC in minimal versus rich media", "setting": "S. aureus 4220; S. aureus 4220", "result": 4, "unit": "fold"}, {"measurement": "MIC against S. aureus in minimal media", "setting": "S. aureus 4220; S. aureus 4220, minimal media", "result": "16^a μg/ml"}, {"measurement": "MIC against S. aureus in rich media", "setting": "S. aureus 4220; S. aureus 4220, rich media", "result": "64^a μg/ml"}, {"measurement": "change in melting temperature ΔTm", "setting": "[6]; [13]", "result": "−0.33"}, {"measurement": "free energy ΔΔG", "setting": "[6]; [13]", "result": "+0.22"}, {"measurement": "change in melting temperature ΔTm", "setting": "[6]; [14]", "result": "−18.52", "unit": "°C"}, {"measurement": "free energy ΔΔG", "setting": "[6]; [14]", "result": "+3.41 kcal mol^−1"}, {"measurement": "dissociation constant", "setting": "[7]", "result": "low micromolar"}, {"measurement": "dissociation constant", "setting": "[8]", "result": "low micromolar"}, {"measurement": "redox activity", "setting": "[9]", "result": "near-total reduction"}, {"measurement": "cellular redox activity", "setting": "[10]; 48 hours", "result": "increased"}, {"measurement": "cellular redox activity", "setting": "[10]; 72 hours", "result": "decreased"}, {"measurement": "redox activity", "setting": "[10]; 128 μg/ml, 48 hours", "result": "near-total reduction"}, {"measurement": "cell viability", "setting": "[11]; 64 μg/ml", "result": 76, "unit": "%"}, {"measurement": "macrophage viability", "setting": "[11]; 128 μg/ml", "result": 25, "unit": "%"}, {"measurement": "resistant colonies", "setting": "S. aureus N315 (MRSA)", "result": "No PKZ18-resistant colonies were found"}, {"measurement": "resistant colonies", "setting": "B. subtilis 168 [12]", "result": "did not generate resistant colonies"}]}]}
